Results reported in doi:10.1101/2024.10.10.617599v1 (biorxiv, 2024).
Structures can show the parent of a compound that is named as a salt.

What was measured:
[1] = target: T1, rP2Y12R (Rattus norvegicus, UniProt Q9EPX4); assay: radioligand displacement of [3H]AZ12464237; format: binding
[2] = target: hP2Y12R (Homo sapiens, UniProt Q9H244); assay: radioligand displacement of [3H]AZ12464237; format: binding
[3] = target: T1, rP2Y12R; assay: radioligand saturation binding, HEK […] membranes

Sequence of hP2Y12R (Q9H244 whole entry): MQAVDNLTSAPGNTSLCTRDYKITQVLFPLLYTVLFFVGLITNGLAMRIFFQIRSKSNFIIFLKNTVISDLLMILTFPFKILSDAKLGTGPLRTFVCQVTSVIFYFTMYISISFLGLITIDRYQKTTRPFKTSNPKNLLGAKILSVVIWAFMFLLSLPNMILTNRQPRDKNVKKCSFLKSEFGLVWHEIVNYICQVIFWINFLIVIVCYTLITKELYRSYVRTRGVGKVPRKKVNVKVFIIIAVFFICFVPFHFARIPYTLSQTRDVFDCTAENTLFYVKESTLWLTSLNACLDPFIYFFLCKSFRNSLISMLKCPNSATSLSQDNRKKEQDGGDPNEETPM
T1 sequence (Q9EPX4 whole entry): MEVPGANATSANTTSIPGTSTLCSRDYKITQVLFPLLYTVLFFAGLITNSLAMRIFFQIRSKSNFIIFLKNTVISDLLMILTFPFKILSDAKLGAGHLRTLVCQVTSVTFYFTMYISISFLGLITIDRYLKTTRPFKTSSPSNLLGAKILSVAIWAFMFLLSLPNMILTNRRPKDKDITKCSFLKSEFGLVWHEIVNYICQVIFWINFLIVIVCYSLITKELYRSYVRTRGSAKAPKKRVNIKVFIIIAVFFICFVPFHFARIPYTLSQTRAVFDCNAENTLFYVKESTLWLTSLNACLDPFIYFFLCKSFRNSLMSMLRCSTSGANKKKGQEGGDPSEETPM

| Ki [1] [µM] | Ki [2] [µM] | Kd [3] [µM] | SMILES |
| --- | --- | --- | --- |
| 0.0488 ± 0.0152 | 0.0201 ± 0.00025 | – | CCCSc1nc(N[C@@H]2C[C@H]2c2ccc(F)c(F)c2)c2nnn([C@@H]3C[C@H](OCCO)[C@@H](O)[C@H]3O)c2n1 [ticagrelor] |
| 0.055 ± 0.0143 | 0.007 ± 0.00054 | – | CNc1cc2[nH]c(=O)n(-c3ccc(NC(=O)NS(=O)(=O)c4ccc(Cl)s4)cc3)c(=O)c2cc1F [elinogrel, 5-chloro-N-[[[4-[6-Fluoro-1,4-dihydro-7-(methylamino)-2,4-dioxo-3(2H)-quinazolinyl]phenyl]amino]carbonyl]-2-thiophenesulfonamide] |
| – | 0.00266 ± 0.0006 | – | CCOC(=O)c1cc(C#N)c(N2CCC(C(=O)NS(=O)(=O)Cc3ccccc3)CC2)nc1C [AZD1283, Ethyl 5-cyano-2-methyl-6-[4-[[[(phenylmethyl)sulfonyl]amino]carbonyl]-1-piperidinyl]-3-pyridinecarboxylate] |
| – | 3.24 ± 1.85 | – | Cc1nc(N=Nc2cc([N+](=O)[O-])ccc2Cl)c(COP(=O)(O)O)c(C=O)c1O [MRS2211, 2-[(2-chloro-5-nitrophenyl)azo]-5-hydroxy-6-methyl-3-[(phosphonooxy)methyl]-4-pyridinecarboxaldehyde disodium salt] |
| – | – | 0.0166 ± 0.00337 | CCOC(=O)c1cc(C#N)c(N2CC(NC(=O)NS(=O)(=O)c3ccc(Cl)s3)C2)nc1C [AZ12464237, Ethyl 6-(3-(3-((5-chlorothiophen-2-yl)sulfonyl)ureido)azetidin-1-yl)-5-cyano-2-methylnicotinate] |

The next lines start with the compound.

| SMILES | Ki [1] [µM] | Ki [2] [µM] | Kd [3] [µM] |
| --- | --- | --- | --- |
| CSc1nc(N)c2ncn([C@@H]3O[C@H](COP(=O)(O)OP(=O)(O)O)[C@@H](O)[C@H]3O)c2n1 [2MeSADP, 2-methylthio-adenosine-5’-diphosphate] | – | 0.0189 ± 0.00261 | – |
| O=C(O)c1cc(-c2ccc(C3CCNCC3)cc2)c2ccc(-c3ccc(C(F)(F)F)cc3)cc2c1 [PPTN·HCl, 4-[4-(4-piperidinyl)phenyl]-7-[4-(trifluoromethyl)phenyl]-2-naphthalenecarboxylic acid hydrochloride] | – | > 10 | – |
| Nc1c(S(=O)(=O)O)cc(Nc2ccc(Nc3ccccc3)c(S(=O)(=O)O)c2)c2c1C(=O)c1ccccc1C2=O [PSB0739] | – | 0.0256 ± 0.00305 | – |
| S=C=Nc1cccc(NC(=S)NCCCCNC(=S)Nc2cccc(N=C=S)c2)c1 [MRS2578] | – | > 100 | – |
